This is an account of results in ChEMBL document CHEMBL3399999, “Anti-trypanosomal cadinanes synthesized by transannular cyclization of the natural sesquiterpene lactone nobilin” (Bioorg Med Chem, 2015).

One series deals with L6. As to the kind of experiment: Cytotoxicity against rat L6 cells. It counts as cell-based.
Series [1] is described as follows: Selectivity index, ratio of IC50 for rat L6 cells to IC50 for bloodstream forms of Trypanosoma brucei rhodesiense STIB 900. It counts as toxicity, cell-based. The following applies: read-out: Ratio IC50.
Series [2] deals with Trypanosoma brucei rhodesiense. As to the kind of experiment: Antiprotozoal activity against bloodstream forms of Trypanosoma brucei rhodesiense STIB 900 after 70 hrs by Alamar blue assay. It counts as functional, organism-based. As to conditions: STIB 900, 70 h. (The colour change of resazurin is a common sign of viable cells or microbes.)

A value given as a limit tells only on which side of the number the result lay.

`Nc1nc(N)nc(Nc2ccc([As]3SCC(CO)S3)cc2)n1` (stereo unspecified) [MELARSOPROL]: in the series on L6, the half-maximal inhibitory concentration (IC50) (usually the concentration at which inhibition is half-maximal) was 29.1 µM. Besides, the selectivity ratio in series [1] is > 5000.

`C=C1C(=O)O[C@]23C=C(C)[C@@H](O)C[C@@H]2[C@H](C)C[C@H](OC(=O)/C(C)=C\C)[C@@H]13`: the IC50 turned out to be 1.44 µM in series [2] and 2.12 µM with L6. Also, the selectivity ratio in series [1] is 1.5.

For the compound `C=C(C)C(=O)O[C@H]1C/C(C)=C/C[C@H](O)/C(C)=C\C2OC(=O)C(=C)[C@@H]21` (single isomer, unassigned), the IC50 in series [2] turned out to be 1.54 µM; in the series on L6, 9.38 µM. In series [1], the selectivity ratio came out at 6.1.

Regarding `C=C(C(=O)O)[C@H]1[C@@H]2C=C(C)C(=O)C[C@@H]2[C@@H](C)C[C@@H]1OC(=O)/C(C)=C\C`, the figures for the IC50 (in series [2]; in the series on L6) were 31.1 µM and 49.1 µM, respectively. Also, the selectivity ratio in series [1] was determined as 1.6.

Consider `C=C1C(=O)OC2/C=C(/C)[C@@H](O)C/C=C(\C)C[C@H](OC(=O)/C(C)=C/C)[C@@H]12` (single isomer, unassigned), for which the IC50 in series [2] was 3.48 µM; in the series with L6, 10.2 µM. Also, the selectivity ratio in series [1] turned out to be 2.9.

Consider `C=C(C(=O)O)[C@H]1[C@@H]2C=C(C)[C@@H](O)C[C@H]2[C@](C)(O)C[C@@H]1OC(=O)/C(C)=C\C`, for which the IC50 is 50.5 µM in series [2] and > 100 µM in the series on L6. The selectivity ratio in series [1] is > 2.

On to `C=C1C(=O)O[C@@]23C=C(C)[C@@H](O)C[C@@H]2[C@@H](C)C[C@H](OC(=O)/C(C)=C\C)[C@@H]13`, for which the IC50 in series [2] turned out to be 0.46 µM; with L6 it was 1.11 µM. Also, in series [1], the selectivity ratio turned out to be 2.4.

As for `C=C(C(=O)O)[C@H]1[C@@H]2C=C(C)[C@@H](O)C[C@@H]2[C@](C)(O)C[C@@H]1OC(=O)/C(C)=C\C`, the half-maximal inhibitory concentration (IC50) in series [2] worked out at 14.8 µM; in the series with L6, 49 µM. In addition, in series [1], the selectivity ratio turned out to be 3.3.

For `C=C1C(=O)O[C@@H]2/C=C(/C)[C@@H](O)C/C=C(\C)C[C@H](OC(=O)/C(C)=C\C)[C@@H]12` [NOBILIN], the figures for the IC50 (in series [2]; in the series with L6) were 3.19 µM and 6.64 µM, respectively. For the same compound, in series [1], the selectivity ratio was 2.1.
